Consider two compounds from ChEMBL document CHEMBL2203135, “Novel progesterone receptor modulators: 4-aryl-phenylsulfonamides” (Bioorg Med Chem Lett, 2012).

Data set [1] is described as follows: AUC (0 to infinity) in rat at 2 mg/kg, po. The data set is classed as ADME, organism-based. On the set-up: time infinity, dose 2 mg/kg, route oral. Particulars: plasma.
A short description of data set [2]: Oral bioavailability in rat at 2 mg/kg. It is filed as ADME, organism-based. To be noted: in vivo.
In data set [3] the test system is Salmonella typhimurium. The data set can be described thus: Mutagenicity in Salmonella typhimurium in absence of liver S9 fraction by non-GLP Ames test. The data set is classed as toxicity, organism-based. Particulars: salmonella enterica subsp. enterica serovar typhimurium.
Data set [4] is described as follows: Half life in rat at 2 mg/kg, iv. Particulars: in vivo. On the set-up: dose 2 mg/kg, route intravenous. It is filed as ADME, organism-based.
The subject of data set [5] is Salmonella typhimurium. The data set can be described thus: Mutagenicity in Salmonella typhimurium in presence of liver S9 fraction by non-GLP Ames test. It is filed as toxicity, organism-based. Particulars: salmonella enterica subsp. enterica serovar typhimurium. For orientation: The Ames test detects mutagens through reverse mutation in bacteria.
Data set [6] is described as follows: AUC (0 to infinity) in cynomolgus monkey at 2 mg/kg, iv. The data set is classed as ADME, organism-based, Macaca fascicularis. More on the design: time infinity, dose 2 mg/kg, route intravenous. To be noted: plasma.
A short description of data set [7]: Clearance in rat at 2 mg/kg, iv. The data set is classed as ADME, organism-based. On the set-up: dose 2 mg/kg, route intravenous. Particulars: in vivo.
Data set [8] can be described thus: Cmax in in ovariectomized rhesus monkey at 5 mg/kg/day, po. The data set is classed as ADME, organism-based, Macaca mulatta. On the set-up: dose 5 mg/kg/day, route oral. Particulars: female, in vivo.
Data set [9] can be described thus: Fraction unbound in human plasma. The data set is classed as ADME, cell-free.
The target in a further data set is T1, Glucocorticoid receptor (Homo sapiens, UniProt P04150).
T1 sequence (P04150 whole entry): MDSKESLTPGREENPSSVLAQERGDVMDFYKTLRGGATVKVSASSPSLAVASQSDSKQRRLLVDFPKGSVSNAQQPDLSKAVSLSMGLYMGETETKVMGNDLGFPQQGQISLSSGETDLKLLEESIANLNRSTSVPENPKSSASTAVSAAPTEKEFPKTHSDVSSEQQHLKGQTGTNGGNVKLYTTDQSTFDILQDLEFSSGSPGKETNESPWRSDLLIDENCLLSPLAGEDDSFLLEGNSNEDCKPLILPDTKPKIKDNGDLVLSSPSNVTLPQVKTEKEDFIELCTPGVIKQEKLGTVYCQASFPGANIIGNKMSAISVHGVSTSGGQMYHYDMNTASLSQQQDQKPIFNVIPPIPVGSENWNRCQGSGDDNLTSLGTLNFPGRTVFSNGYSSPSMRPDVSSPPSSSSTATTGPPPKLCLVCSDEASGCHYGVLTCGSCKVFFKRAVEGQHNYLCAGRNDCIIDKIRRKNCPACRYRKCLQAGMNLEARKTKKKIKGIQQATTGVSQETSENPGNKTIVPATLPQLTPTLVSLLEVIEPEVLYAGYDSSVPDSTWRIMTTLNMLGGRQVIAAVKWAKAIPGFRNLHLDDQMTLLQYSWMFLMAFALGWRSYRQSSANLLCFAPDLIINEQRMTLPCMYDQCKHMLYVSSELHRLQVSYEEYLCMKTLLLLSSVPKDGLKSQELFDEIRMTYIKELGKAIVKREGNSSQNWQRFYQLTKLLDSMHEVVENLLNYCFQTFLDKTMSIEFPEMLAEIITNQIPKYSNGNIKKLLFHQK
The data set can be described thus: Antagonist activity at glucocorticoid receptor by cellular reporter gene assay. It is filed as functional. In general terms: A reporter such as luciferase makes a cellular process visible.

Another data set addresses T2, Estrogen receptor (Homo sapiens, UniProt P03372).
T2 sequence (P03372 whole entry): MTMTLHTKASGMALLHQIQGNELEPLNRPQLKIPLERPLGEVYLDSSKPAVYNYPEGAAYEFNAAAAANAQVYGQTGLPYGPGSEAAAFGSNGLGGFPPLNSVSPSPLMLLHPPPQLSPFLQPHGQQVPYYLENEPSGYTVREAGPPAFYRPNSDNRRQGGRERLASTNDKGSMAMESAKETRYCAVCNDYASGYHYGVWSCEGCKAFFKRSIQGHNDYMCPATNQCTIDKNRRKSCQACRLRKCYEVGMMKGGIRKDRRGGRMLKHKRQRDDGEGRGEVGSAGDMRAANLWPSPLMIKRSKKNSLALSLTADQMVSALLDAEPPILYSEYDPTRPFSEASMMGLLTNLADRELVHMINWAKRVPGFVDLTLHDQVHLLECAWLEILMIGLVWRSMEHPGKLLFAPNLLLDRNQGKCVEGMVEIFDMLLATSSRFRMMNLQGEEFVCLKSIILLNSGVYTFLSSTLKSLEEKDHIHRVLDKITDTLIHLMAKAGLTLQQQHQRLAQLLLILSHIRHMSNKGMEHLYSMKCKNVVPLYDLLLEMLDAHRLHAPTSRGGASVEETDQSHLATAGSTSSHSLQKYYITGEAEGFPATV
The data set can be described thus: Antagonist activity at estrogen receptor by cellular reporter gene assay. It is filed as functional.

pIC50: −log10 of the molar value.

One may read the AUC(0-inf) as total exposure, with the tail of the curve extrapolated. In general, bioavailability refers to dose-corrected exposure relative to a reference, in per cent. By half-life is commonly meant the time in which the quantity being followed falls by half. The term clearance denotes a measure of how efficiently the substance is removed, as volume per time. Broadly, the Cmax is the peak of the concentration-time curve. The fraction unbound is the share of the substance not bound to proteins or other matrix. On to `CCS(=O)(=O)Nc1cc(F)c(-c2ccc(C#N)n2C)c(F)c1`, for which the AUC(0-inf) in [1] came out at 15200 ng·h/mL; in data set [6], 18000 ng·h/mL. Further, in [2], the bioavailability came to 98.5%. The Activity result in the data set on Salmonella typhimurium [3] and with Salmonella typhimurium [5] was “Non-toxic” each time. Moreover, in data set [4], the half-life was 2 h. The same compound displayed a clearance in data set [7] of 2.6 mL/min/kg. Moreover, in data set [8], the highest level (Cmax) was 8.8 µM. Besides, the fraction unbound in data set [9] came to 0.003.

In general, pIC50 refers to −log10 of the IC50, conventionally taken in molar units. As to `COC[C@]1(OC)CC[C@H]2[C@@H]3CCC4=CC(=O)CCC4=C3[C@@H](c3ccc(/C=N/O)cc3)C[C@@]21C` [ASOPRISNIL], the negative-log IC50 (pIC50) was 6.92 at Glucocorticoid receptor and 5.70 against Estrogen receptor.
